Assay results from ChEMBL document CHEMBL6087462, “Cuminaldehyde Potentiates Antiproteolytic Peptide Efficacy via Parallel Pathways of Enhanced Inner Membrane-Damaging Activity and Inhibition of Bacterial Energy Metabolism” (J Med Chem, 2025).

Experiments:
Escherichia coli [1] = test: Synergistic antimicrobial activity against Escherichia coli 078 assessed as fractional inhibitory concentration index in presence of cuminaldehyde by checkerboard broth microdilution assay; assay type: functional, 78
Escherichia coli [2] = test: Antimicrobial activity against Escherichia coli 078 assessed as reduction in microbial growth in presence of cuminaldehyde by CLSI based broth microdilution method; assay type: functional; details: 78
Staphylococcus aureus [3] = test: Antimicrobial activity against Staphylococcus aureus ATCC 29213 assessed as reduction in microbial growth by CLSI based broth microdilution method; assay type: functional
Escherichia coli [4] = test: Synergistic antimicrobial activity against Escherichia coli K88 assessed as fractional inhibitory concentration index in presence of cuminaldehyde by checkerboard broth microdilution assay; assay type: functional
Escherichia coli [5] = test: Synergistic antimicrobial activity against Escherichia coli K99 assessed as fractional inhibitory concentration index in presence of carvacrol by checkerboard broth microdilution assay; assay type: functional
Escherichia coli [6] = test: Synergistic antimicrobial activity against Escherichia coli ATCC 25922 assessed as fractional inhibitory concentration by checkerboard broth microdilution assay; assay type: functional
[7] = tested on: Staphylococcus epidermidis; test: Synergistic antimicrobial activity against Staphylococcus epidermidis 12228 assessed as fractional inhibitory concentration index in presence of cuminaldehyde by checkerboard broth microdilution assay; assay type: functional
Salmonella typhimurium [8] = test: Synergistic antimicrobial activity against Salmonella typhimurium 7731 assessed as fractional inhibitory concentration index in presence of citronellal by checkerboard broth microdilution assay; assay type: functional, Salmonella enterica subsp. enterica serovar Typhimurium
Staphylococcus aureus [9] = test: Synergistic antimicrobial activity against Staphylococcus aureus ATCC 25923 assessed as fractional inhibitory concentration by checkerboard broth microdilution assay; assay type: functional
[10] = tested on: Staphylococcus epidermidis; test: Antimicrobial activity against Staphylococcus epidermidis ATCC 12228 assessed as reduction in microbial growth in presence of cuminaldehyde by CLSI based broth microdilution method; assay type: functional
Staphylococcus aureus [11] = test: Antimicrobial activity against Staphylococcus aureus 43300 assessed as reduction in microbial growth in presence of cuminaldehyde by CLSI based broth microdilution method; assay type: functional
Enterococcus faecalis [12] = test: Synergistic antimicrobial activity against Enterococcus faecalis ATCC 29212 assessed as fractional inhibitory concentration by checkerboard broth microdilution assay; assay type: functional
Staphylococcus aureus [13] = test: Synergistic antimicrobial activity against Staphylococcus aureus 29213 assessed as fractional inhibitory concentration index in presence of perillaldehyde by checkerboard broth microdilution assay; assay type: functional
Enterococcus faecalis [14] = test: Antimicrobial activity against Enterococcus faecalis ATCC 29212 assessed as reduction in microbial growth by CLSI based broth microdilution method; assay type: functional
Staphylococcus aureus [15] = test: Synergistic antimicrobial activity against Staphylococcus aureus 43300 assessed as fractional inhibitory concentration index in presence of citral by checkerboard broth microdilution assay; assay type: functional
Escherichia coli [16] = test: Antimicrobial activity against Escherichia coli ATCC 25922 assessed as reduction in microbial growth in presence of cuminaldehyde by CLSI based broth microdilution method; assay type: functional
[17] = tested on: Staphylococcus epidermidis; test: Antimicrobial activity against Staphylococcus epidermidis ATCC 12228 assessed as cuminaldehyde MIC by CLSI based broth microdilution method; assay type: functional
Escherichia coli [18] = test: Synergistic antimicrobial activity against Escherichia coli 078 assessed as fractional inhibitory concentration index in presence of thymol by checkerboard broth microdilution assay; assay type: functional, 78
Escherichia coli [19] = test: Antimicrobial activity against Escherichia coli K99 assessed as cuminaldehyde MIC by CLSI based broth microdilution method; assay type: functional
Enterococcus faecalis [20] = test: Synergistic antimicrobial activity against Enterococcus faecalis 29212 assessed as fractional inhibitory concentration index in presence of thymol by checkerboard broth microdilution assay; assay type: functional
Salmonella typhimurium [21] = test: Synergistic antimicrobial activity against Salmonella typhimurium 7731 assessed as fractional inhibitory concentration index in presence of thymol by checkerboard broth microdilution assay; assay type: functional, Salmonella enterica subsp. enterica serovar Typhimurium
Enterococcus faecalis [22] = test: Antimicrobial activity against Enterococcus faecalis ATCC 29212 assessed as reduction in microbial growth in presence of cuminaldehyde by CLSI based broth microdilution method; assay type: functional
Salmonella typhimurium [23] = test: Synergistic antimicrobial activity against Salmonella typhimurium 14028 assessed as fractional inhibitory concentration index in presence of cuminaldehyde by checkerboard broth microdilution assay; assay type: functional, Salmonella enterica subsp. enterica serovar Typhimurium
Escherichia coli [24] = test: Synergistic antimicrobial activity against Escherichia coli K88 assessed as fractional inhibitory concentration index in presence of citral by checkerboard broth microdilution assay; assay type: functional
Staphylococcus aureus [25] = test: Synergistic antimicrobial activity against Staphylococcus aureus 25923 assessed as fractional inhibitory concentration index in presence of perillaldehyde by checkerboard broth microdilution assay; assay type: functional
Salmonella typhimurium [26] = test: Antimicrobial activity against Salmonella typhimurium ATCC 14028 assessed as cuminaldehyde MIC by CLSI based broth microdilution method; assay type: functional, Salmonella enterica subsp. enterica serovar Typhimurium; details: Salmonella enterica
Escherichia coli [27] = test: Synergistic antimicrobial activity against Escherichia coli 078 assessed as fractional inhibitory concentration index in presence of citronellal by checkerboard broth microdilution assay; assay type: functional, 78
Staphylococcus aureus [28] = test: Antimicrobial activity against Staphylococcus aureus ATCC 25923 assessed as cuminaldehyde MIC by CLSI based broth microdilution method; assay type: functional
Escherichia coli [29] = test: Synergistic antimicrobial activity against Escherichia coli 078 assessed as fractional inhibitory concentration by checkerboard broth microdilution assay; assay type: functional
Escherichia coli [30] = test: Antimicrobial activity against Escherichia coli K99 assessed as reduction in microbial growth by CLSI based broth microdilution method; assay type: functional
Escherichia coli [31] = test: Synergistic antimicrobial activity against Escherichia coli 25922 assessed as fractional inhibitory concentration index in presence of carvacrol by checkerboard broth microdilution assay; assay type: functional
Escherichia coli [32] = test: Synergistic antimicrobial activity against Escherichia coli 25922 assessed as fractional inhibitory concentration index in presence of citronellal by checkerboard broth microdilution assay; assay type: functional
[33] = tested on: Staphylococcus epidermidis; test: Synergistic antimicrobial activity against Staphylococcus epidermidis 12228 assessed as fractional inhibitory concentration index in presence of citronellal by checkerboard broth microdilution assay; assay type: functional
[34] = tested on: Staphylococcus epidermidis; test: Synergistic antimicrobial activity against Staphylococcus epidermidis 12228 assessed as fractional inhibitory concentration index in presence of carvacrol by checkerboard broth microdilution assay; assay type: functional
Pseudomonas aeruginosa [35] = test: Synergistic antimicrobial activity against Pseudomonas aeruginosa ATCC 27853 assessed as fractional inhibitory concentration by checkerboard broth microdilution assay; assay type: functional
Pseudomonas aeruginosa [36] = test: Antimicrobial activity against Pseudomonas aeruginosa ATCC 27853 assessed as reduction in microbial growth by CLSI based broth microdilution method; assay type: functional
Salmonella typhimurium [37] = test: Synergistic antimicrobial activity against Salmonella typhimurium ATCC 7731 assessed as fractional inhibitory concentration by checkerboard broth microdilution assay; assay type: functional, Salmonella enterica subsp. enterica serovar Typhimurium
Staphylococcus aureus [38] = test: Synergistic antimicrobial activity against Staphylococcus aureus ATCC 29213 assessed as fractional inhibitory concentration by checkerboard broth microdilution assay; assay type: functional
Escherichia coli [39] = test: Synergistic antimicrobial activity against Escherichia coli 25922 assessed as fractional inhibitory concentration index by checkerboard broth microdilution assay; assay type: functional
Pseudomonas aeruginosa [40] = test: Synergistic antimicrobial activity against Pseudomonas aeruginosa 27853 assessed as fractional inhibitory concentration index in presence of carvacrol by checkerboard broth microdilution assay; assay type: functional
[41] = tested on: Staphylococcus epidermidis; test: Synergistic antimicrobial activity against Staphylococcus epidermidis 12228 assessed as fractional inhibitory concentration index in presence of citral by checkerboard broth microdilution assay; assay type: functional
[42] = Antimicrobial activity against Salmonella enterica subsp. enterica serovar Pullorum ATCC 7913 assessed as reduction in microbial growth by CLSI based broth microdilution method; assay type: functional
Salmonella typhimurium [43] = test: Antimicrobial activity against Salmonella typhimurium ATCC 7731 assessed as reduction in microbial growth by CLSI based broth microdilution method; assay type: functional, Salmonella enterica subsp. enterica serovar Typhimurium; details: Salmonella enterica
Escherichia coli [44] = test: Synergistic antimicrobial activity against Escherichia coli K88 assessed as fractional inhibitory concentration index in presence of carvacrol by checkerboard broth microdilution assay; assay type: functional

In the case of `CC[C@H](C)[C@H](NC(=O)[C@@H](NC(=O)[C@@H](CCCNC(=N)N)NC(=O)[C@H](C)NC(=O)[C@H](C)NC(=O)[C@@H](N)Cc1cccc2ccccc12)[C@@H](C)CC)C(=O)N[C@@H](CC(C)C)C(=O)N[C@H](CCCNC(=N)N)C(=O)N[C@@H](Cc1c[nH]c2ccccc12)C(=O)N[C@H](CCCNC(=N)N)C(=O)N[C@@H](Cc1ccccc1)C(=O)N[C@@H](CCCNC(=N)N)C(=O)O`, the “fractional inhibitory concentration index (FICI)” value (Escherichia coli [1]) is reported as 0.125, the MIC (Escherichia coli [2]) is reported as 2 mg/L and the MIC (Staphylococcus aureus [3]) is reported as 16 mg/L. The “fractional inhibitory concentration index (FICI)” value (Escherichia coli [4]) was 0.125, the “fractional inhibitory concentration index (FICI)” value (Escherichia coli [5]) was 0.5 and the FIC (Escherichia coli [6]) was 0.125. For the same molecule, the “fractional inhibitory concentration index (FICI)” value [7] was 0.375, the “fractional inhibitory concentration index (FICI)” value (Salmonella typhimurium [8]) was 0.254 and the FIC (Staphylococcus aureus [9]) was 0.063. The MIC [10] was 4 mg/L, the MIC (Staphylococcus aureus [11]) was 4 mg/L and the FIC (Enterococcus faecalis [12]) was 0.125. For the same molecule, the “fractional inhibitory concentration index (FICI)” value (Staphylococcus aureus [13]) was 0.25, the MIC (Enterococcus faecalis [14]) was 8 mg/L and the “fractional inhibitory concentration index (FICI)” value (Staphylococcus aureus [15]) was 0.313. The MIC (Escherichia coli [16]) was 1 mg/L, the MIC [17] was 256 mg/L and the “fractional inhibitory concentration index (FICI)” value (Escherichia coli [18]) was 0.5. The MIC (Escherichia coli [19]) was 1020 mg/L, the “fractional inhibitory concentration index (FICI)” value (Enterococcus faecalis [20]) was 0.75 and the “fractional inhibitory concentration index (FICI)” value (Salmonella typhimurium [21]) was 0.313. The MIC (Enterococcus faecalis [22]) was 1 mg/L, the “fractional inhibitory concentration index (FICI)” value (Salmonella typhimurium [23]) was 0.25 and the “fractional inhibitory concentration index (FICI)” value (Escherichia coli [24]) was 0.188. The “fractional inhibitory concentration index (FICI)” value (Staphylococcus aureus [25]) was 0.625, the MIC (Salmonella typhimurium [26]) was 1020 mg/L and the “fractional inhibitory concentration index (FICI)” value (Escherichia coli [27]) was 0.156. The MIC (Staphylococcus aureus [28]) was 256 mg/L, the FIC (Escherichia coli [29]) was 0.063 and the MIC (Escherichia coli [30]) was 8 mg/L. For the same molecule, the “fractional inhibitory concentration index (FICI)” value (Escherichia coli [31]) was 0.5, the “fractional inhibitory concentration index (FICI)” value (Escherichia coli [32]) was 0.25 and the “fractional inhibitory concentration index (FICI)” value [33] was 0.25. The “fractional inhibitory concentration index (FICI)” value [34] was 1, the FIC (Pseudomonas aeruginosa [35]) was 0.125 and the MIC (Pseudomonas aeruginosa [36]) was 32 mg/L. The FIC (Salmonella typhimurium [37]) was 0.063, the FIC (Staphylococcus aureus [38]) was 0.25 and the “fractional inhibitory concentration index (FICI)” value (Escherichia coli [39]) was 0.25. The “fractional inhibitory concentration index (FICI)” value (Pseudomonas aeruginosa [40]) was 0.5, the “fractional inhibitory concentration index (FICI)” value [41] was 0.5 and the MIC [42] was 16 mg/L. For the same molecule, the MIC (Salmonella typhimurium [43]) was 8 mg/L and the “fractional inhibitory concentration index (FICI)” value (Escherichia coli [44]) was 0.313.
